In ChEMBL document CHEMBL5465560, “Selectivity Literature for EUbOPEN Chemogenomic Library” (2024):

Experiments:
[1] = biological target: T1, Serine/threonine-protein kinase MAK (Homo sapiens) (UniProt P20794); experiment: Selectivity interaction (KinomeScan (DiscoverX)) EUB0000595a MAK; conditions: at 10 µM
T1 sequence (whole entry): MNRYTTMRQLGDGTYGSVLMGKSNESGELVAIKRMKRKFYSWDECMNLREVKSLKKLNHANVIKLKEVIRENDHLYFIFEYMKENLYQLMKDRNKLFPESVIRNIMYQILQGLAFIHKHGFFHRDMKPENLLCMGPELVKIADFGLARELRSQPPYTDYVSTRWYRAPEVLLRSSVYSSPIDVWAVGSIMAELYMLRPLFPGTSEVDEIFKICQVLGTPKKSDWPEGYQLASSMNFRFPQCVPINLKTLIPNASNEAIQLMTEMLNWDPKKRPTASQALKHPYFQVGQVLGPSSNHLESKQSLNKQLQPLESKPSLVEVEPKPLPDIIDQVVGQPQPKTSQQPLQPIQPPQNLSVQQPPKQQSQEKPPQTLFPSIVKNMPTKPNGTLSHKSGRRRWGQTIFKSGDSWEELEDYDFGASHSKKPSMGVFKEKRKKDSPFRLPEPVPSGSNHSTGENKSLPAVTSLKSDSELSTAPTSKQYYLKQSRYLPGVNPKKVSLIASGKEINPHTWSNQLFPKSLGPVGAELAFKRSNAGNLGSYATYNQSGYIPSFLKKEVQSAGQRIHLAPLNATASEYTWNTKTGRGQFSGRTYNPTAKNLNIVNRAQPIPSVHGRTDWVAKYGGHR

Misshapen-like kinase 1 = Misshapen-like kinase 1 (Homo sapiens, UniProt Q8N4C8); experiment: Selectivity interaction (KinomeScan (DiscoverX)) EUB0000695a MINK1; conditions: at 100 nM
[2] = biological target: Serine/threonine-protein kinase 24 (Homo sapiens) (UniProt Q9Y6E0); experiment: Selectivity interaction (SelectScreen profiling (Invitrogen)) EUB0000607a STK24; conditions: at 2 µM
[3] = biological target: Vascular endothelial growth factor receptor 3 (Homo sapiens, UniProt P35916); experiment: Selectivity interaction (KinomeScan (DiscoverX)) EUB0000618a FLT4; conditions: at 10 µM
[4] = biological target: T2, Serine/threonine-protein kinase LATS1 (Homo sapiens) (UniProt O95835); experiment: Selectivity interaction (ActivX KiNativ screen (kinase selectivity in THP-1 cell lysates)) EUB0000639a LATS1; format: subcellular; conditions: lysate, at 0.01 µM
T2 sequence (whole entry): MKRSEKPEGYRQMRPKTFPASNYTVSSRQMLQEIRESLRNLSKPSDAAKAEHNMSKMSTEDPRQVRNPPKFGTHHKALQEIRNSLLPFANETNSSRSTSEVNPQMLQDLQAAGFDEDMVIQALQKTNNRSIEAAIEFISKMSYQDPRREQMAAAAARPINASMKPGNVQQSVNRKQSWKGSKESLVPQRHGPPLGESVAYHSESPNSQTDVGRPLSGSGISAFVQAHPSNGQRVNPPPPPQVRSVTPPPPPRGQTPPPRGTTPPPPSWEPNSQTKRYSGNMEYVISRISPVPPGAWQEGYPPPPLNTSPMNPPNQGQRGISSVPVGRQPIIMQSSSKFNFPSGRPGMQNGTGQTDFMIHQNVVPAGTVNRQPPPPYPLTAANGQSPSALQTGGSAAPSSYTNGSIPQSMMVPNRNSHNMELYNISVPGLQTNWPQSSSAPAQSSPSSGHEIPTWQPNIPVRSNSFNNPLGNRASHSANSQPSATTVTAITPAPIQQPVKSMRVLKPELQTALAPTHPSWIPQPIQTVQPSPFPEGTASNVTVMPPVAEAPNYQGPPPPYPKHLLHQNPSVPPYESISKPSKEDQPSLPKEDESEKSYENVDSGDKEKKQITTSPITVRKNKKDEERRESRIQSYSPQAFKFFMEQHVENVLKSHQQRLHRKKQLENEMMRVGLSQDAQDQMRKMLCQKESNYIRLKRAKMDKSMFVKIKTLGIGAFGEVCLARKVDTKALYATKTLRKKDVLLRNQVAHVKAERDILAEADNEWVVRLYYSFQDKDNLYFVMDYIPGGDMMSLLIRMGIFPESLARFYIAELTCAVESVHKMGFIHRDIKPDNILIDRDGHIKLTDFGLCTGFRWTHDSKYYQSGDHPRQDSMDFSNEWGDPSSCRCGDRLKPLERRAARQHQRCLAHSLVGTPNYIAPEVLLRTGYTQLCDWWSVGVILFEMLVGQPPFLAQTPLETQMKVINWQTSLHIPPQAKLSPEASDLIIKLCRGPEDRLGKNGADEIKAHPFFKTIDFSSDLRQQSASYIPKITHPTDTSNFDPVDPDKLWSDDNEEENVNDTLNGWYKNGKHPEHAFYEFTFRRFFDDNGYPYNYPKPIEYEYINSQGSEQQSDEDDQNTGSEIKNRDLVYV

[5] = biological target: T3, Aurora kinase A (Homo sapiens) (UniProt O14965); experiment: Selectivity interaction (ActivX KiNativ screen (kinase selectivity in THP-1 cell lysates)) EUB0000639a STK6; format: subcellular; conditions: lysate, at 1 µM
T3 sequence (whole entry): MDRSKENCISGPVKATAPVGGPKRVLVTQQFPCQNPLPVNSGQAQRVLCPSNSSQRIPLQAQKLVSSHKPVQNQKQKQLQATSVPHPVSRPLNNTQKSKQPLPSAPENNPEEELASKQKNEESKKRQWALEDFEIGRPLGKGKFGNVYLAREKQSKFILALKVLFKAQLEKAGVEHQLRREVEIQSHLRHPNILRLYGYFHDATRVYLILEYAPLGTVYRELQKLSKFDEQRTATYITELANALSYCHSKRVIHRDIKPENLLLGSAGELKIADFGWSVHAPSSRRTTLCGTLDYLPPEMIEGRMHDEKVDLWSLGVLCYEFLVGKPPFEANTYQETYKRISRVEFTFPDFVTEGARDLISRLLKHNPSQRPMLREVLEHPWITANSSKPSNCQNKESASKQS

Vascular endothelial growth factor receptor 3, sequence (P35916 whole entry): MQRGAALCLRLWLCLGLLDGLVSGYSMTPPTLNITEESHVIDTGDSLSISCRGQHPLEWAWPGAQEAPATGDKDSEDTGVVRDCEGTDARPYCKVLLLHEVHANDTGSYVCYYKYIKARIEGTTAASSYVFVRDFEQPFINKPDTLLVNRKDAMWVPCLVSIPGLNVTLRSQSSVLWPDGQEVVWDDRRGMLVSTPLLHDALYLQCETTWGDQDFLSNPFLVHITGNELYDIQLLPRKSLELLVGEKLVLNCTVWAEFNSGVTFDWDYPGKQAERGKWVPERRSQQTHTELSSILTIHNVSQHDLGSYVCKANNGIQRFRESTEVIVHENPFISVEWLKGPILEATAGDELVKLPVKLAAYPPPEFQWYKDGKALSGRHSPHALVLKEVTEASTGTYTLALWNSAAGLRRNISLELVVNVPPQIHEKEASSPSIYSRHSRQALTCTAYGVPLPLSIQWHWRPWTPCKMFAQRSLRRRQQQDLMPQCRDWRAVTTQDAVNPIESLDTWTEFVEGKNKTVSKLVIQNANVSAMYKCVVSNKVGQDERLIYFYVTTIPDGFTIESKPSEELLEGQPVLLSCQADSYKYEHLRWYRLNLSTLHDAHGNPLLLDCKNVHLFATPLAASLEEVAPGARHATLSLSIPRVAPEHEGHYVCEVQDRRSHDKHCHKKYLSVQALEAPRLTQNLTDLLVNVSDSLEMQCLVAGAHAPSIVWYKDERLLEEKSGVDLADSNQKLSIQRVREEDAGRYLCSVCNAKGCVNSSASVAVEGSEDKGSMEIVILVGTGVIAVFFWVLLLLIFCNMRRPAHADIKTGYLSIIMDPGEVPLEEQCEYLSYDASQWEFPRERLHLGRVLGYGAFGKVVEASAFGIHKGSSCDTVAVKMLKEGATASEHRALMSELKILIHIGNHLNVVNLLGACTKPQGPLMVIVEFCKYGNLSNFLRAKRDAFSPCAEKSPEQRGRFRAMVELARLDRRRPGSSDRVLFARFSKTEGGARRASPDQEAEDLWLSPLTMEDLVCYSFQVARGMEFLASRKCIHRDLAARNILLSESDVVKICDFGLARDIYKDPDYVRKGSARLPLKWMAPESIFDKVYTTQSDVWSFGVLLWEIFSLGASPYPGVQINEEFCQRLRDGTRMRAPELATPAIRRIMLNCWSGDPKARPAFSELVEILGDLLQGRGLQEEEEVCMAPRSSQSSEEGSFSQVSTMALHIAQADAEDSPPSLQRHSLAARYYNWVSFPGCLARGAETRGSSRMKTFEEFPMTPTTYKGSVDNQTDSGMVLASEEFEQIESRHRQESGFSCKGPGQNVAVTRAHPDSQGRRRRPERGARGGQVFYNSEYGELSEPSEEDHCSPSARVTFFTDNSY
Misshapen-like kinase 1, sequence (Q8N4C8 whole entry, looked up): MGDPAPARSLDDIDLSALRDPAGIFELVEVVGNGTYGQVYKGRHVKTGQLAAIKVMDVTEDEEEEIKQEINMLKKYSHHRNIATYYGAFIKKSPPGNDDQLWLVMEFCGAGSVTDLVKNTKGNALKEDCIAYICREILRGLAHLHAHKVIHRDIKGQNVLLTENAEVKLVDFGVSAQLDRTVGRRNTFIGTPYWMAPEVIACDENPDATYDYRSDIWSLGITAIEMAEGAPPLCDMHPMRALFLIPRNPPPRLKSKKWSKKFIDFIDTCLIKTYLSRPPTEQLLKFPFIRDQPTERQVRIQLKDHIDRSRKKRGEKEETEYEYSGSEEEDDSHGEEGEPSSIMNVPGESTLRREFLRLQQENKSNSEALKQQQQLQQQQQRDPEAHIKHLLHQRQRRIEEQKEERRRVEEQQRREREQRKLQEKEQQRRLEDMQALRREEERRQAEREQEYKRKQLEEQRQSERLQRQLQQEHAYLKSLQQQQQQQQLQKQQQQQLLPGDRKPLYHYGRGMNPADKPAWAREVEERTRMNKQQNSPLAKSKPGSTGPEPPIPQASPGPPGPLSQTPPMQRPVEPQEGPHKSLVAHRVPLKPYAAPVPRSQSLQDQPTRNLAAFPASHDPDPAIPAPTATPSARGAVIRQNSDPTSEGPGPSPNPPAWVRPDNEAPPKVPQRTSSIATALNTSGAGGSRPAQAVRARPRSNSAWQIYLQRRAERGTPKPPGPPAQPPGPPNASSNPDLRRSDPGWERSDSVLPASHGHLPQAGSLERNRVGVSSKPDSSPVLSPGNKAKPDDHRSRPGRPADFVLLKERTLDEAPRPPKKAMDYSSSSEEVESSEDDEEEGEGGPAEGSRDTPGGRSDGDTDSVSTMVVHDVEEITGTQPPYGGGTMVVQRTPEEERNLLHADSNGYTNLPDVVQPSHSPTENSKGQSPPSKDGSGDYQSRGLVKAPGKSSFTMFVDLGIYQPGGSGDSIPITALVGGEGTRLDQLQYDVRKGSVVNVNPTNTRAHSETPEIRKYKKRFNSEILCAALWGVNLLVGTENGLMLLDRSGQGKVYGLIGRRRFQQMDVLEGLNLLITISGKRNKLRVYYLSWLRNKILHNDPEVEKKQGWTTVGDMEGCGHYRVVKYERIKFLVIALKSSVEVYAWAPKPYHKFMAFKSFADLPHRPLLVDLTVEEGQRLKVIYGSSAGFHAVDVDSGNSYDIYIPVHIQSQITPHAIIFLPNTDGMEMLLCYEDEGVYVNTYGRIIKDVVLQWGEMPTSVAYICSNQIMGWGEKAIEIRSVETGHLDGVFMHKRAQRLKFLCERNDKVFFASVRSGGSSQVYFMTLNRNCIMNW
Serine/threonine-protein kinase 24 (Homo sapiens), sequence (Q9Y6E0 whole entry, looked up): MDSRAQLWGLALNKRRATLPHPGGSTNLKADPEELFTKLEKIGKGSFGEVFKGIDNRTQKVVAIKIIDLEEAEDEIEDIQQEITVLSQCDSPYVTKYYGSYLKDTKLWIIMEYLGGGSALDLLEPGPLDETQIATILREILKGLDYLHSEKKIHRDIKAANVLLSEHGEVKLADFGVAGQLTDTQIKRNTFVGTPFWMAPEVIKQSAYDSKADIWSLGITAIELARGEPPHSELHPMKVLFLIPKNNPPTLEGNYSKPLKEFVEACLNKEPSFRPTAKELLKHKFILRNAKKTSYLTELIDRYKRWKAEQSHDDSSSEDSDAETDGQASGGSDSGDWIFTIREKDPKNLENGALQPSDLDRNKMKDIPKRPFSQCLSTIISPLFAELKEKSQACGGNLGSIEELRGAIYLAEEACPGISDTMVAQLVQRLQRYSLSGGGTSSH

Q: Which % of control [1] does the source give for `COCC(=O)NC/C=C/c1ccc2ncnc(Nc3ccc(Oc4ccc(C)nc4)c(C)c3)c2c1` [CP-724714] here?
A: 90%

Q: For `Cc1cc(F)c(C(=O)Nc2cccc(-c3nncn3C(C)C)n2)cc1-n1cnc(C2CC2)c1`, which % of control (Misshapen-like kinase 1) is on record?
A: 83%

Q: With `CNC(=O)Nc1ccc(-c2nc(N3CC4CCC(C3)O4)c3cnn(C4CCC5(CC4)OCCO5)c3n2)cc1` as the molecule, how does the % of inhibition [2] read?
A: -1%

Q: `O[C@H]1CC[C@H](Nc2ncc3nc(Nc4c(F)cc(F)cc4F)n([C@H]4CCOC4)c3n2)CC1` was tested. Which % of control [3] did it give?
A: 55%

Q: What does the source list for `CC[C@@H]1[C@H](F)C(=O)N[C@@H]1COc1nccc2cc(C(N)=O)c(OC)cc12` [ZIMLOVISERTIB]?
A: % of inhibition [4]: 15.8%; % of inhibition [5]: 20%
